The values that follow are results of earlier work, collected in patent US20040063806A1, “Antimicrobial polyalphaolefin composition” (priority 2000, published 2004).

One data set deals with Bacillus subtilis. As to conditions: Bacillus subtilis NCTC 8236, medium NA.
The next data set relates to Clostridium botulinum. The settings on record: Clostridium botulinum NCTC 3805, medium EA.
In data set [1] the test system is Corynebacterium diphtherias. The settings on record: Corynebacterium diphtherias NCTC 3984, medium BHI-A.
In data set [2] the test system is Lactobacillus delbrueckii. As to conditions: Lactobacillus delbrueckii ATCC 7830, medium MACA.
The next data set has as its system Listeria monocytogenes. As to conditions: Listeria monocytogenes ATCC 15313, medium BHI-A.
Data set [3] relates to Streptococcus heamolyticus A. The settings on record: origin A, medium BHI-A.
The next data set has as its system Streptococcus pyogenes. As to conditions: Streptococcus pyogenes ATCC 21059, medium M-H.
The subject of the next data set is Acinetobacter lwoffii. The settings on record: Acinetobacter lwoffii ATCC 15309, medium M-H.
In another data set the test system is Brucella intermedia. As to conditions: origin A, medium BR.A.A.
The next data set has as its system Citrobacter freundii. As to conditions: origin A, medium NA.
A further data set concerns Enterobacter aerogenes. As to conditions: Enterobacter aerogenes ATCC 13048, medium M-H.
The test system of the next data set is Moraxella glucidolytica. The settings on record: origin A, medium NA.
For a further data set, the system named is Neisseria catarrhalis. The settings on record: Neisseria catarrhalis NCTC 3622, medium BA.
Data set [4] deals with Pasteurella pseudotuberculosis. The settings on record: origin C-G, medium NA.
A further data set relates to Proteus mirabilis. The settings on record: Proteus mirabilis ATCC 14153, medium M-H.
The next data set concerns Vibrio eltor. The settings on record: Vibrio eltor NCTC 8457, medium NA.
For another data set, the system named is Aspergillus niger. As to conditions: Aspergillus niger ATCC 6275, medium M.
For a further data set, the system named is Keratinomyces ajelloi. The settings on record: origin A, medium SMA.
The test system of the next data set is Trichophyton cutaneum. As to conditions: origin A, medium SMA.
The subject of another data set is Trochophyton tonsurans. The settings on record: origin A, medium SMA.

Read-outs that look alike come from different tables or passages of the source.

Consider `Oc1cc(Cl)ccc1Oc1ccc(Cl)cc1Cl` [IRGAGUARD B 1000, 2,4,4′-trichloro-2′-hydroxydiphenyl ether], for which the Microbiostatic effect in the data set on Bacillus subtilis is 0.1 ppm; in the data set with Clostridium botulinum, 3.0 ppm; in [1], 3.0 ppm; with Enterococcus faecium (Enterococcus faecium ATCC 10541, medium BHI-A), 3.0 ppm; in the data set with Enterococcus faecium (Enterococcus faedium ATCC 6057, medium M-H), 4.0 ppm; in the data set with Enterococcus faecium (Enterococcus faedium NCTC 8619, medium BHI-A), 10.0 ppm. The Microbiostatic effect in data set [2] is 33.0 ppm; in the data set on Listeria monocytogenes it was 1.0 ppm; in [3] it was 3.0 ppm; with Streptococcus pyogenes, 4.0 ppm; in the data set with Acinetobacter lwoffii it was 0.125 ppm; in the data set with Brucella intermedia it was 0.1 ppm. Besides, the Microbiostatic effect is 3.0 ppm with Citrobacter freundii; 0.5 ppm with Enterobacter aerogenes; 0.3 ppm in the data set with Moraxella glucidolytica; 33.0 ppm in the data set with Neisseria catarrhalis; 10.0 ppm in data set [4]; 0.5 ppm in the data set on Proteus mirabilis. Besides, the Microbiostatic effect with Vibrio eltor was 10.0 ppm; in the data set on Aspergillus niger, 30 ppm; in the data set on Keratinomyces ajelloi, 10 ppm; in the data set with Trichophyton cutaneum, 10 ppm; with Trochophyton tonsurans, 10 ppm.
